This data set can be described thus: Measurement of solubility in methyl isobutyl ketone. Conditions: for Solubility: compound (g)×100/[compound (g)+methyl isobutyl ketone (g)]; for Solubility relative to that of the compound represented by the formula (A): from Table 1. It counts as physicochemical. The procedure:
<Measurement of Solubility>
by the formula (1-1) which was obtained in Example 2, the compound represented by the formula (1-2) which was obtained in Example 6, and the compound represented by the following formula (A)
[drawing 31] (compound (g)×100/[compound (g)+methyl isobutyl ketone (g)], % by weight) were measured.

The results in this text go back to patent publication US9242948B2, “Diepoxy compound, process for producing same, and composition containing the diepoxy compound” (Sumitomo Chemical Company, Limited, priority 2009, dated 2016).

On to `O=C(OC1CCC(c2ccc(OCC3CO3)cc2)CC1)c1ccc(OCC2CO2)cc1` (centres unmarked) [formula (1-1), 4-{4-(2,3-epoxypropoxy)phenyl}cyclohexyl 4-(2,3-epoxypropoxy)benzoate], for which the “Solubility relative to that of the compound represented by the formula (A)” value is on record as “more than twice as big”. For the same compound, the Solubility (40° C.) is listed as 2.36 % by weight. Where the note is “65° C.”, this compound displayed a Solubility of 4.16 % by weight.
For `Cc1cc(C(=O)OC2CCC(c3ccc(OCC4CO4)cc3)CC2)ccc1OCC1CO1` (centres unmarked) [formula (1-2), 4-{4-(2,3-epoxypropoxy)phenyl}cyclohexyl 4-(2,3-epoxypropoxy)-3-methylbenzoate] the same measures were “more than twice as big”, 2.01 % by weight and 4.70 % by weight.
With `Cc1cc(OC(=O)c2ccc(OCC3CO3)cc2)ccc1OC(=O)c1ccc(OCC2CO2)cc1` (centres unmarked) [formula (A), reference compound], the Solubility by setting is: (40° C.) 1.10 % by weight; (65° C.) 2.00 % by weight.
